Measurements as given in patent publication US20220192955A1, “AZOXYSTROBIN EFFICACY IN SCALP HEALTH” (The Procter & Gamble Company, priority 2020, published 2022).
Marks after values point to notes of the source that are not given here.

System: human scalp (dandruff)
Assay: Self-assessment questionnaire for itch perception
Type: in vivo
Procedure: Subjects are enrolled in a double-blind, randomized study for all test groups and have Baseline and Week 3 measurements of scalp health taken for flaking, itch and scalp health endpoints. Subjects take home a test product(s) and are instructed on use of test products throughout the study. Test products are solubilized in a hydroalcoholic leave-on formulation. Azoxystrobin raw material is sourced from AK Scientific Inc. (Union City, Calif.) as >97% pure. Azoxystrobin scalp treatment is prepared from a slurry of azoxystrobin in ethanol that is formulated to 0.1% (w/v) in a base chassis of 50% ethanol, 0.35% Ultrez 21 (rheology modifier), 0.05% neutrol TE and water (q.s.). Vehicle scalp treatment is prepared similarly without the addition of azoxystrobin raw material. Subjects apply either azoxystrobin or vehicle scalp treatments daily for 3 weeks. Self-assessment questionnaires for itch perception are administered to each subject at Baseline and Week 3. Itch perception is quantified by each subject as severity of symptoms over the past 24 hours on a 7 point scale: 0=none, 1=slight, 2=slight to moderate, 3=moderate, 4=moderate to severe; 5=severe; 6=very severe.

In the case of `CO/C=C(/C(=O)OC)c1ccccc1Oc1cc(Oc2ccccc2C#N)ncn1` [Azoxystrobin], the “Mean Itch Severity at Week 3” value (7 point scale 0-6, Common Baseline Severity = 3.1, 0.1% leave-on daily) was 1.5* and the “reduction in itch perception” value (compared to a placebo control) was 48%.
